Legend:
human TLR9 = biological target: T1, human TLR9 (Homo sapiens, UniProt Q9NR96); test: TLR9 inhibition reporter assay (HEK-Blue cells, SEAP reporter); assay type: cell-based; details: HEK-Blue cells overexpressing human TLR9, stimulated with ODN2006 5 nM, 22 hour incubation
T1 construct: host or cells: HEK-Blue cells
T1 sequence (Q9NR96 26-1032): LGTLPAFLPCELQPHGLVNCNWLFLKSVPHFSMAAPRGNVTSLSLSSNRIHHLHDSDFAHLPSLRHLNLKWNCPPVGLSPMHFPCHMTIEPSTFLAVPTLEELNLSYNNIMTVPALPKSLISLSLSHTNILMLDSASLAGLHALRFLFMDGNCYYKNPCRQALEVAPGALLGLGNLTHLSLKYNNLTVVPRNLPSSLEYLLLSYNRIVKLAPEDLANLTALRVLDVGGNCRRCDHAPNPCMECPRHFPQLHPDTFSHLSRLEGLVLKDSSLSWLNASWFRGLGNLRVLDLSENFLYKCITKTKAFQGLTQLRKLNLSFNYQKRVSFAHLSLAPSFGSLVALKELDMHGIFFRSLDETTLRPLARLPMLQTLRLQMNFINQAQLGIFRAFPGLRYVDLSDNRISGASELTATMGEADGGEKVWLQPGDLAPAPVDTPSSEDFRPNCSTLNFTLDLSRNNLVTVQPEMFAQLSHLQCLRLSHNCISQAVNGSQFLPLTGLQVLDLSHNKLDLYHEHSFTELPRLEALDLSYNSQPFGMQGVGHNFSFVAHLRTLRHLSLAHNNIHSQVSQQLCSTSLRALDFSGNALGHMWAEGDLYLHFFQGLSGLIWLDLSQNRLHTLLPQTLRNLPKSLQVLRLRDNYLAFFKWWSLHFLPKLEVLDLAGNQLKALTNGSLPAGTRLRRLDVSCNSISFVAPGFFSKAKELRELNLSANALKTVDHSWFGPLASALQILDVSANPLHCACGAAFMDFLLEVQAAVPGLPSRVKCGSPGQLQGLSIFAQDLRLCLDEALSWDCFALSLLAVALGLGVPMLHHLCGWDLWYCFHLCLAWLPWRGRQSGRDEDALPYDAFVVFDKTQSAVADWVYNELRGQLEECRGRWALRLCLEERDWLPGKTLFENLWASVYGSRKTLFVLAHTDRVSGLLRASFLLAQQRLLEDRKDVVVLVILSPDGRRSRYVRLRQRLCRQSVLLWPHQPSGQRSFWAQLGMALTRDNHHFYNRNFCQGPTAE
Method in brief: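 HEK-Blue cells overexpressing human TLR9 (25,000 cells/well), NF-κB/AP-1-driven SEAP reporter. Compounds at 0.05 nM–50 μM final, 22 h at 37 °C, 5% CO2 with agonist. SEAP detected with HEK-Blue Detection medium; % inhibition versus agonist plus DMSO and known-inhibitor wells.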

human TLR7 = biological target: T2, human TLR7 (Homo sapiens, UniProt Q9NYK1); test: TLR7 inhibition reporter assay (HEK-Blue cells, SEAP reporter); assay type: cell-based; details: HEK-Blue cells overexpressing human TLR7, stimulated with gardiquimod 7.5 μM, 22 hour incubation
T2 construct: host or cells: HEK-Blue cells
T2 sequence (Q9NYK1 27-1049): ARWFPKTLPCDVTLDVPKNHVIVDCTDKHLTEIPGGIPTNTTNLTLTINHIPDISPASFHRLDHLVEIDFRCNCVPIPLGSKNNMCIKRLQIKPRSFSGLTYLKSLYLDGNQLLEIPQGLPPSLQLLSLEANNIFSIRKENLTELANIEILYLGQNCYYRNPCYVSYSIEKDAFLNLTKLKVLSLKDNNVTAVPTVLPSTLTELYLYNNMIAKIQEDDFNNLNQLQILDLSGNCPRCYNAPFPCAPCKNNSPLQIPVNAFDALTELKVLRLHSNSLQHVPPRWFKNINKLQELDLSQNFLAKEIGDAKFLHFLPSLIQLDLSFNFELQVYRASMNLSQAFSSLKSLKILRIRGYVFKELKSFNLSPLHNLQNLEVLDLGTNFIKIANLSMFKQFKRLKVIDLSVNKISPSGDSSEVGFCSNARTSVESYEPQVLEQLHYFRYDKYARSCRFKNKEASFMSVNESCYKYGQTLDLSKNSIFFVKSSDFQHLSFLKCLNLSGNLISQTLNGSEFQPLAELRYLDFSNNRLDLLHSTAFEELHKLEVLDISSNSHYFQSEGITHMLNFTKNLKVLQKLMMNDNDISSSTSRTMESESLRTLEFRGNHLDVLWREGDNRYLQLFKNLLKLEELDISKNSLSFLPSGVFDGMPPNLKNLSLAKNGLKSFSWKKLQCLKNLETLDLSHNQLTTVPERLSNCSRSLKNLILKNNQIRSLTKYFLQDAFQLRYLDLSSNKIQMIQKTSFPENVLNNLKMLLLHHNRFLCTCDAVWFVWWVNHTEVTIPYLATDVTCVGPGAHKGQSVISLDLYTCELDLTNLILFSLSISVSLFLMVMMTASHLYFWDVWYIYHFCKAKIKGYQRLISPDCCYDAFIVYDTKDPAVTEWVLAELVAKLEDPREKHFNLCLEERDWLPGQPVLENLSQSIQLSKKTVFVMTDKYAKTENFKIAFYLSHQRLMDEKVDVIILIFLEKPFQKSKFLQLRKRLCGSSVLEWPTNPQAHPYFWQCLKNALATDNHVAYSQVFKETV
Method in brief: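 Screening used HEK-Blue cells overexpressing one human TLR (7, 8 or 9) and an IFN-β minimal promoter–NF-κB/AP-1 SEAP construct. Stimulation lasted 22 h at 37 °C with receptor-specific agonist: gardiquimod, R848 or ODN2006 at 7.5 μM, 15.9 μM and 5 nM.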

Q: Which results are given for `CC(C)N1CCN(c2ccc(-c3cc4c(cc(-c5ccc(S(C)(=O)=O)cc5)n4C)c(C(C)(C)O)n3)cc2)CC1` [Example 118, 2-[6-[4-(4-isopropylpiperazin-1-yl)phenyl]-1-methyl-2-(4-methylsulfonylphenyl)pyrrolo[3,2-c]pyridin-4-yl]propan-2-ol]?
A: IC50 (human TLR9): 57 nM; IC50 (human TLR7): 1700 nM

Q: With `COc1ccc(-c2c(C)[nH]c3cnc(C4CCN(C(=O)C5CCN(C6CC6)CC5)CC4)cc23)cc1OC` [Example 5, (1-Cyclopropylpiperidin-4-yl)(4-(3-(3,4-dimethoxyphenyl)-2-methyl-1H-pyrrolo[2,3-c]pyridin-5-yl)piperidin-1-yl)methanone] as the molecule, how does the IC50 (human TLR9) read?
A: 133 nM

Q: What about the IC50 (human TLR7) of the same molecule?
A: 8200 nM

Q: What does the source list for `Cc1nc(-c2cc(F)c(N3CCN(CCCO)CC3)cc2F)cc2c1cc(-c1ccc(S(C)(=O)=O)cc1)n2C` [Example 56, 3-(4-(4-(1,4-dimethyl-2-(4-(methylsulfonyl)phenyl)-1H-pyrrolo[3,2-c]pyridin-6-yl)-2,5-difluorophenyl)piperazin-1-yl)propan-1-ol]?
A: IC50 (human TLR9): 270 nM; IC50 (human TLR7): 18500 nM

Q: What does the source list for `Cc1nc(-c2ccc(N3CCN(C4CCOC4)CC3)cc2)cc2c1cc(-c1ccc(S(C)(=O)=O)cc1)n2C` (stereo not drawn) [Example 37, 1,4-dimethyl-2-(4-(methylsulfonyl)phenyl)-6-(4-(4-(tetrahydrofuran-3-yl)piperazin-1-yl)phenyl)-1H-pyrrolo[3,2-c]pyridine]?
A: IC50 (human TLR9): 57 nM; IC50 (human TLR7): 11700 nM

Q: How did the IC50 (human TLR9) turn out when `COc1ccc(-c2c(C)n(C)c3cnc(C4CCN(C5CCN(CC(C)C)CC5)CC4)cc23)cc1OC` [Example 17, 3-(3,4-dimethoxyphenyl)-5-(1′-isobutyl-[1,4′-bipiperidin]-4-yl)-1,2-dimethyl-1H-pyrrolo[2,3-c]pyridine] was run?
A: 19 nM

Q: And the IC50 (human TLR7)?
A: 2300 nM

Q: With `COc1ccc(-c2c(C)[nH]c3cnc(C4CCN(C5CCN(C(=O)c6ccccc6)CC5)CC4)cc23)cc1OC` [Example 14, (4-(3-(3,4-dimethoxyphenyl)-2-methyl-1H-pyrrolo[2,3-c]pyridin-5-yl)-[1,4′-bipiperidin]-1′-yl) (phenyl)methanone] as the molecule, how does the IC50 (human TLR9) read?
A: 313 nM

Q: What about the IC50 (human TLR7) of the same molecule?
A: 8200 nM

Q: For `COCCN1C2CCC1CN(c1ccc(-c3cc4c(cc(-c5ccc(S(C)(=O)=O)cc5)n4C)c(C)n3)cc1F)C2` [Example 75, 6-(3-fluoro-4-(8-(2-methoxyethyl)-3,8-diazabicyclo[3.2.1]octan-3-yl)phenyl)-1,4-dimethyl-2-(4-(methylsulfonyl)phenyl)-1H-pyrrolo[3,2-c]pyridine], which IC50 (human TLR9) is on record?
A: 75 nM

Q: And the IC50 (human TLR7)?
A: 2200 nM

Q: With `COc1ccc(-c2cc3cnc(C4CCN(C(=O)CN5CCCCC5)CC4)cc3n2C)cc1OC` [Example 25, 1-(4-(2-(3,4-dimethoxyphenyl)-1-methyl-1H-pyrrolo[3,2-c]pyridin-6-yl)piperidin-1-yl)-2-(piperidin-1-yl)ethan-1-one] as the molecule, how does the IC50 (human TLR9) read?
A: 197 nM

Q: And the IC50 (human TLR7)?
A: 4500 nM

Q: With `Cc1nc(-c2ccc(N3CCN(CC(C)C)CC3)cc2)cc2c1cc(-c1ccc(S(C)(=O)=O)cc1)n2C` [Example 34, 6-(4-(4-isobutylpiperazin-1-yl)phenyl)-1,4-dimethyl-2-(4-(methylsulfonyl)phenyl)-1H-pyrrolo[3,2-c]pyridine] as the molecule, how does the IC50 (human TLR9) read?
A: 10 nM

Q: What about the IC50 (human TLR7) of the same molecule?
A: 2200 nM

Q: What does the source list for `COc1ccc(-c2c(C)n(C)c3cnc(-c4ccc(N5CCN(CC(C)(C)O)CC5)cc4)cc23)cc1OC` [Example 3, 1-(4-(4-(3-(3,4-Dimethoxyphenyl)-1,2-dimethyl-1H-pyrrolo[2,3-c]pyridin-5-yl)phenyl)piperazin-1-yl)-2-methylpropan-2-ol]?
A: IC50 (human TLR9): 82 nM; IC50 (human TLR7): 3300 nM

Q: Which IC50 (human TLR9) does the source give for `Cc1nc(-c2ccc(CN3CCN(CCC(C)(C)O)CC3)cc2)cc2c1cc(-c1ccc(S(C)(=O)=O)cc1)n2C` [Example 60, 4-(4-(4-(1,4-dimethyl-2-(4-(methylsulfonyl)phenyl)-1H-pyrrolo[3,2-c]pyridin-6-yl)benzyl)piperazin-1-yl)-2-methylbutan-2-ol] here?
A: 64 nM

Q: And the IC50 (human TLR7)?
A: 5400 nM

Q: `Cc1nc(-c2ccc(C3(O)CCN(C(C)C)CC3)cc2F)cc2c1cc(-c1ccc(S(C)(=O)=O)cc1)n2C` [Example 109, 4-(4-(1,4-dimethyl-2-(4-(methylsulfonyl)phenyl)-1H-pyrrolo[3,2-c]pyridin-6-yl)-3-fluorophenyl)-1-isopropylpiperidin-4-ol] was tested. Which IC50 (human TLR9) did it give?
A: 188 nM

Q: And the IC50 (human TLR7)?
A: 1300 nM

Q: `COc1ccc(-c2c(C)[nH]c3cnc(-c4ccc(N5CCN(C(C)C)CC5)cc4)cc23)cc1OC` [Example 2, 3-(3,4-dimethoxyphenyl)-5-(4-(4-isopropylpiperazin-1-yl)phenyl)-2-methyl-1H-pyrrolo[2,3-c]pyridine] was tested. Which IC50 (human TLR9) did it give?
A: 157 nM

Q: What about the IC50 (human TLR7) of the same molecule?
A: 2700 nM

Q: `COc1ccc(-c2c(C)c3cc(C4CCN(C5CCN(CC(C)C)CC5)CC4)ncc3n2C)cc1OC` [Example 13, 2-(3,4-dimethoxyphenyl)-5-(1′-isobutyl-[1,4′-bipiperidin]-4-yl)-1,3-dimethyl-1H-pyrrolo[2,3-c]pyridine] was tested. Which IC50 (human TLR9) did it give?
A: 191 nM

Q: And the IC50 (human TLR7)?
A: 17300 nM

Q: With `Cc1nc(-c2ccc(N3CCN4CCCC4C3)c(F)c2F)cc2c1cc(-c1ccc(S(C)(=O)=O)cc1)n2C` (stereo not drawn) [Example 99, 6-(2,3-difluoro-4-(hexahydropyrrolo[1,2-a]pyrazin-2(1H)-yl)phenyl)-1,4-dimethyl-2-(4-(methylsulfonyl)phenyl)-1H-pyrrolo[3,2-c]pyridine] as the molecule, how does the IC50 (human TLR9) read?
A: 250 nM

Q: What about the IC50 (human TLR7) of the same molecule?
A: 1500 nM

Q: For `COc1ccc(-c2c(C)[nH]c3cnc(C4CCN(C(=O)CN5CCCC5)CC4)cc23)cc1OC` [Example 21, 1-(4-(3-(3,4-dimethoxyphenyl)-2-methyl-1H-pyrrolo[2,3-c]pyridin-5-yl)piperidin-1-yl)-2-(pyrrolidin-1-yl)ethan-1-one], which IC50 (human TLR9) is on record?
A: 603 nM

Q: What about the IC50 (human TLR7) of the same molecule?
A: 26000 nM

Q: How did the IC50 (human TLR9) turn out when `Cc1nc(-c2ccc([C@@]3(O)CCN(C(C)C)C(C)(C)C3)c(F)c2)cc2c1cc(-c1ccc(S(C)(=O)=O)cc1)n2C` [Example 105, (R)-4-(4-(1,4-dimethyl-2-(4-(methylsulfonyl)phenyl)-1H-pyrrolo[3,2-c]pyridin-6-yl)-2-fluorophenyl)-1-isopropyl-2,2-dimethylpiperidin-4-ol] was run?
A: 52 nM

Q: What about the IC50 (human TLR7) of the same molecule?
A: 1100 nM

Q: `Cc1nc(-c2ccc(N3CCN(C4CCOCC4)CC3)cc2)cc2c1cc(-c1ccc(S(C)(=O)=O)cc1)n2C` [Example 35, 1,4-dimethyl-2-(4-(methylsulfonyl)phenyl)-6-(4-(4-(tetrahydro-2H-pyran-4-yl)piperazin-1-yl)phenyl)-1H-pyrrolo[3,2-c]pyridine] was tested. Which IC50 (human TLR9) did it give?
A: 710 nM

Q: What about the IC50 (human TLR7) of the same molecule?
A: 16800 nM
